Reference: ChEMBL document CHEMBL4334467, “Synthesis and SAR Study of Carbamoyl Pyridone Bicycle Derivatives as Potent Inhibitors of Influenza Cap-dependent Endonuclease” (J Med Chem, 2019)
Active and inactive are the calls of the source. The rule behind the calls is not given here.

Key:
[1] = molecular target: Polymerase acidic protein (Influenza A virus (A/Puerto Rico/8/1934(H1N1)), UniProt P03433); assay: Inhibition of Influenza A virus (A/WSN/1933(H1N1)) CEN using m7G[5']-ppp-[5'] [m2'-O]GAA UAU(-Cy3) GCAUCACUAGUAAGCUUUGCUCUA(-BHQ2)-3' as substrate measured after 60 mins by fluorescence assay
Influenza A virus [2] = assay type: functional, organism-based; conditions: A/WSN/1933(H1N1), MDCK, 72 h
[3] = Metabolic stability in Crj:CD(SD) rat liver microsomes assessed as compound remaining at 2 uM incubated for 30 mins by LC/MS/MS analysis; assay type: ADME, Microsome; conditions: read-out: Stability
[4] = In vivo total clearance in Sprague-Dawley rat at 0.5 mg/kg, iv administered as single dose after 2 to 360 mins by LC/MS/MS analysis; assay type: ADME, organism-based
[5] = Protein binding in rat serum assessed as unbound fraction after 24 hrs by LC-MS based equilibrium dialysis analysis; assay type: ADME, cell-free
Influenza A virus [6] = assay type: functional, organism-based; conditions: MDCK
[7] = molecular target: Polymerase acidic protein (Influenza A virus (A/Puerto Rico/8/1934(H1N1)), UniProt P03433); assay: Inhibition of Influenza A virus CEN
Influenza A virus [8] = assay: microbe, parasite or virus in culture
Description: Antiviral activity against Influenza A virus

Influenza A virus [9] = assay type: functional, organism-based; conditions: A/Puerto Rico/8/1934(H1N1), MDCK, 72 h
Influenza A virus H3N2 [10] = assay type: functional, organism-based; conditions: A/Victoria/3/1975(H3N2), MDCK, 72 h
Influenza A virus H3N2 [11] = assay type: functional, organism-based; conditions: A/Hong Kong/8/68, MDCK, 72 h
Influenza B virus [12] = assay: Antiviral activity against Influenza B virus (B/Hong Kong/05/72) infected in MDCK cells assessed as reduction in virus-induced cytopathic effect incubated for 72 hrs by WST assay; assay type: functional, organism-based; conditions: B/Hong Kong/05/1972, MDCK
Influenza B virus [13] = assay: Antiviral activity against Influenza B virus (B/Maryland/1/59) infected in MDCK cells assessed as reduction in virus-induced cytopathic effect incubated for 72 hrs by WST assay; assay type: functional, organism-based
Influenza B virus [14] = assay: Antiviral activity against Influenza B virus (B/Maryland/1/59) infected in iv dosed BALB/C mouse administered once daily; assay type: functional
Influenza B virus [15] = assay: Antiviral activity against Influenza B virus (B/Maryland/1/59) infected in BALB/C mouse assessed as mouse survival at 10 mg/kg, iv administered once daily relative to control; assay type: functional
Influenza B virus [16] = assay: Antiviral activity against Influenza B virus (B/Maryland/1/59) infected in BALB/C mouse assessed as increase in mouse survival at 0.08 to 2 mg/kg, iv administered once daily; assay type: functional, organism-based
[17] = Cytotoxicity against MDCK cells after 3 days by WST-8 assay; assay type: cell-based, Canis lupus familiaris; conditions: dog

COCCN1C[C@H](C(c2ccccc2)c2ccccc2)n2cc(C(=O)O)c(=O)c(O)c2C1=O
IC50 [1]: 0.0478 µM | EC50 (Influenza A virus [2]): 0.293 µM

O=C(O)/C(O)=C/C(=O)C1(Cc2ccc(Cl)cc2)CCN(Cc2ccccc2)CC1
EC50 (Influenza A virus [2]): 38.3 µM

CCOC(=O)c1cn2c(c(O)c1=O)C(=O)N(CCOC)C[C@@H]2C(c1ccccc1)c1ccccc1
IC50 [1]: 0.298 µM | EC50 (Influenza A virus [2]): 2.53 µM

COCCN1CN(C(c2ccccc2)c2ccccc2)n2cc(C(=O)O)c(=O)c(O)c2C1=O
IC50 [1]: 0.116 µM | EC50 (Influenza A virus [2]): 1.47 µM

COCCN1C[C@H](CC(C)C)n2cc(C(=O)O)c(=O)c(O)c2C1=O
IC50 [1]: 9.31 µM

CN1CN(C(c2ccccc2)c2ccccc2)n2ccc(=O)c(O)c2C1=O
IC50 [1]: 0.164 µM | EC50 (Influenza A virus [2]): 0.0816 µM | remaining at 0.5 h, 2 µM [3]: 92.1% | clearance [4]: 1.13 L/h/kg | fraction unbound at 24 h [5]: 0.07

O=C1N/C(=N\N=C2\C(=O)Nc3ccccc32)S/C1=C1\C(=O)Nc2ccccc21
EC50 (Influenza A virus [6]): 0.8 µM

O=c1oc2ccc(-c3ccc(F)cc3)cc2cc1O
IC50 [7]: 0.5 µM

COCCN1CN(Cc2ccc(F)cc2)n2cc(C(=O)O)c(=O)c(O)c2C1=O
IC50 [1]: 0.419 µM | EC50 (Influenza A virus [2]): > 25 µM

COCCN1C[C@H](C(c2ccccc2)c2ccccc2)n2cc(Cl)c(=O)c(O)c2C1=O
EC50 (Influenza A virus [2]): 0.541 µM

COCCN1C[C@H](C(c2ccccc2)c2ccccc2)n2cc(C)c(=O)c(O)c2C1=O
IC50 [1]: 0.281 µM | EC50 (Influenza A virus [2]): 2.47 µM

COCCN1C[C@H](c2ccccc2)n2cc(C(=O)O)c(=O)c(O)c2C1=O
IC50 [1]: 27.8 µM | EC50 (Influenza A virus [2]): > 50 µM

COCCN1C[C@H](Cc2ccccc2)n2cc(C(=O)O)c(=O)c(O)c2C1=O
IC50 [1]: 0.241 µM | EC50 (Influenza A virus [2]): > 50 µM

O=C(NCCc1ccc(O)c(O)c1)c1cc2cc(O)c(O)cc2[nH]1
IC50 [7]: 0.94 µM | EC50 (Influenza A virus [8]): 16 µM

COCCN1C[C@@H](Cc2ccccc2)n2cc(C(=O)O)c(=O)c(O)c2C1=O
IC50 [1]: 27.4 µM | EC50 (Influenza A virus [2]): > 50 µM

COCCN1C[C@H](C(c2ccccc2)c2ccccc2)n2cc(OC)c(=O)c(O)c2C1=O
IC50 [1]: 0.11 µM | EC50 (Influenza A virus [2]): 1.68 µM

COCCN1C[C@H](C(C)C)n2cc(C(=O)O)c(=O)c(O)c2C1=O
IC50 [1]: 2.99 µM

COCCN1C[C@H](CCc2ccccc2)n2cc(C(=O)O)c(=O)c(O)c2C1=O
IC50 [1]: 1.35 µM

COCCN1CN(C(c2ccccc2)c2ccccc2)n2ccc(=O)c(O)c2C1=O
IC50 [1]: 0.103 µM | EC50 (Influenza A virus [2]): 0.0752 µM | remaining at 0.5 h, 2 µM [3]: 83.4% | clearance [4]: 2.84 L/h/kg | fraction unbound at 24 h [5]: 0.129

CNC(=O)c1cn2c(c(O)c1=O)C(=O)N(CCOC)C[C@@H]2C(c1ccccc1)c1ccccc1
IC50 [1]: 1.59 µM | EC50 (Influenza A virus [2]): 7.11 µM

CC(C)N1C[C@H](C(c2ccccc2)c2ccccc2)n2ccc(=O)c(O)c2C1=O
IC50 [1]: 0.239 µM | EC50 (Influenza A virus [2]): 0.0575 µM | remaining at 0.5 h, 2 µM [3]: 78.7% | clearance [4]: 1.52 L/h/kg | fraction unbound at 24 h [5]: 0.182 | EC50 (Influenza A virus [9]): 0.194 µM | EC50 (Influenza A virus H3N2 [10]): 0.488 µM | EC50 (Influenza A virus H3N2 [11]): 0.232 µM | EC50 (Influenza B virus [12]): 0.1 µM | EC50 (Influenza B virus [13]): 0.177 µM

O=C1c2c(O)c(=O)ccn2N(C(c2ccccc2)c2ccccc2)CN1Cc1ccco1
IC50 [1]: 0.588 µM | EC50 (Influenza A virus [2]): 0.478 µM | remaining at 0.5 h, 2 µM [3]: 50.6% | clearance [4]: 2.56 L/h/kg | fraction unbound at 24 h [5]: 0.0217

O=C(O)c1cn(CC2(n3ccc4cccnc43)CCCC2)cc(O)c1=O
IC50 [7]: 0.005 µM | EC50 (Influenza A virus [8]): 0.201 µM

O=c1[nH]c(-c2ccc(F)cc2)c(-c2ccc(-c3nnn[nH]3)cc2)cc1O
EC50 (Influenza A virus [8]): 11.4 µM

COCCN1C[C@H](C(c2ccccc2)c2ccccc2)n2ccc(=O)c(O)c2C1=O
IC50 [1]: 0.115 µM | EC50 (Influenza A virus [2]): 0.134 µM | remaining at 0.5 h, 2 µM [3]: 79.7% | clearance [4]: 2.53 L/h/kg | fraction unbound at 24 h [5]: 0.297

COCCN1C[C@H](C(c2ccccc2)c2ccccc2)n2cc(N)c(=O)c(O)c2C1=O
IC50 [1]: 0.358 µM | EC50 (Influenza A virus [2]): 3.86 µM

CC(C)N1CN(C(c2ccccc2)c2ccccc2)n2ccc(=O)c(O)c2C1=O
IC50 [1]: 0.286 µM | EC50 (Influenza A virus [2]): 0.0816 µM | remaining at 0.5 h, 2 µM [3]: 86% | clearance [4]: 0.654 L/h/kg | fraction unbound at 24 h [5]: 0.0377 | EC50 (Influenza A virus [9]): 0.183 µM | EC50 (Influenza A virus H3N2 [10]): 0.829 µM | EC50 (Influenza A virus H3N2 [11]): 0.301 µM | EC50 (Influenza B virus [12]): 0.124 µM | EC50 (Influenza B virus [13]): 0.176 µM | Activity (Influenza B virus [14]): Dose-dependent effect | ED50 (Influenza B virus [14]): 0.89 mg/kg/day | survival at 10 mg/kg (Influenza B virus [15]): 100% | Activity (Influenza B virus [16]): inactive | CC50 at 72 h [17]: > 25 µM

COCCN1CCn2cc(C(=O)O)c(=O)c(O)c2C1=O
IC50 [1]: 68.6 µM

CN1C[C@H](C(c2ccccc2)c2ccccc2)n2ccc(=O)c(O)c2C1=O
IC50 [1]: 0.0804 µM | EC50 (Influenza A virus [2]): 0.144 µM | remaining at 0.5 h, 2 µM [3]: 79.9% | clearance [4]: 1.9 L/h/kg | fraction unbound at 24 h [5]: 0.285
